# Read-outs that look alike come from different tables or passages of the source.
# Legend:
# [1] = Metabolic stability assay in human liver microsomes (HLM); assay type: in vitro ADME; details: 1 μM
# Summary of the method: (§1)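 In Protocol 1, compound was 1 μM final with NADPH at 37 °C, sampled at 0–45 min. In Protocol 2, 1.5 μM compound with 0.75 mg/mL microsomes (pre-NADPH mix) in 0.1 M potassium phosphate, 1 mM EDTA, pH 7.4 was pre-incubated 10 min, then NADPH started the reaction. Both: LC-MS/MS % remaining versus time 0, half-life from single-phase exponential fit.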
# [2] = Metabolic stability assay in rat liver microsomes (RLM); assay type: in vitro ADME; details: 1 μM
# Summary of the method: as §1
# Human plasma stability = assay type: in vitro ADME; details: plasma
# Summary of the method: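 Protocol 1: 1 μM compound in pH 7.4 sodium-heparin human plasma at 37° C, sampled 0–120 min. Protocol 2: 5 μM in plasma at pH 7.4–8.0, 37° C, duplicates, sampled 0–120 min. Both: LC-MS/MS percent remaining versus t0; half-life from single-phase exponential decay.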
# CYP1A2 = CYP1A2 (Homo sapiens (Human), UniProt P05177); assay: Cytochrome P450 inhibition in human liver microsomes, CYP1A2
# Sequence of CYP1A2 (P05177 whole entry): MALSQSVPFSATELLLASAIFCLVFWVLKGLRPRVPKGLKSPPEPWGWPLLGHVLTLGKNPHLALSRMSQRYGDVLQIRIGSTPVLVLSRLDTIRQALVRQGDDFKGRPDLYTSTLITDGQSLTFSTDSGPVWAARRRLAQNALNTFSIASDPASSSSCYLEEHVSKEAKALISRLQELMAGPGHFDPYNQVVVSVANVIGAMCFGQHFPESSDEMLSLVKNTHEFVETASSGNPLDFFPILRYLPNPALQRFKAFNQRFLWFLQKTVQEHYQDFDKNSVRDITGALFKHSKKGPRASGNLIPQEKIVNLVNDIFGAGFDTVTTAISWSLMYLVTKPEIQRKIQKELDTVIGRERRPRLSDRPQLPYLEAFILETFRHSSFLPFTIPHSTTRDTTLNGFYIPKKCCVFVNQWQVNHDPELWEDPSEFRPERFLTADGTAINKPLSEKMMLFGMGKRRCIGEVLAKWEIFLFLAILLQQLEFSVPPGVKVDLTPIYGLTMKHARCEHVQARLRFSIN
# CYP2C19 [3] = target: T1, CYP2C19 (Homo sapiens (Human), UniProt P33261); details: microsomes
# T1 sequence (P33261 whole entry): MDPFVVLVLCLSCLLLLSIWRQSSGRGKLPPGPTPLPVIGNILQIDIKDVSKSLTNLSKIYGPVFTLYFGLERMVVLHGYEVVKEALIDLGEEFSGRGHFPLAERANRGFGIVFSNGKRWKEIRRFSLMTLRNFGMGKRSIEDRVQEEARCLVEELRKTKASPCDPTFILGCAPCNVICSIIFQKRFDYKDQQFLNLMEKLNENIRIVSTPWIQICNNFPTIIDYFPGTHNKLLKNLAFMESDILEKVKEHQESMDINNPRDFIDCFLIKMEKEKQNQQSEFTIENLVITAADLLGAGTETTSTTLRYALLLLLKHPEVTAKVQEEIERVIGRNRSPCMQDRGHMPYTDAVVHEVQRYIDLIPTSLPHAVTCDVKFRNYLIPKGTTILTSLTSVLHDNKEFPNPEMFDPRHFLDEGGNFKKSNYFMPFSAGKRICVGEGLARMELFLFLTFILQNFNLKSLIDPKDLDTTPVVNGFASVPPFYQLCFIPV
# [4] = target: rat brain nicotinic receptor (α7 NAChR) (Rattus norvegicus (Rat), UniProt Q05941); assay type: binding
# Sequence of rat brain nicotinic receptor (α7 NAChR) (Q05941 23-502 limits assumed): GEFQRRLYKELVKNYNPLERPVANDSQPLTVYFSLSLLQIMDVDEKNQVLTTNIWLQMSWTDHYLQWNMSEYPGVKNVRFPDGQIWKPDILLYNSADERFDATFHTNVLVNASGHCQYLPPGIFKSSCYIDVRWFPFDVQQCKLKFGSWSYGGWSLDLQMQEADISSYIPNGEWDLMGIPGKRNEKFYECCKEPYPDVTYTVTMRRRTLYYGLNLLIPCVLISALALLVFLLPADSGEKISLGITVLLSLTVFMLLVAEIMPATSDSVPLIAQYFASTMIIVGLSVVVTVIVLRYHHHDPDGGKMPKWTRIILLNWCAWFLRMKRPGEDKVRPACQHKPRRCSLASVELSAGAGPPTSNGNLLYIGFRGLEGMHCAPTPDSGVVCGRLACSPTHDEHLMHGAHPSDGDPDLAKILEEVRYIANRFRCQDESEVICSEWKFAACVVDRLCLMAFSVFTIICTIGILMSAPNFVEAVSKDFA
# CYP3A4 = CYP3A4 (Homo sapiens (Human), UniProt P08684); assay: Cytochrome P450 inhibition in human liver microsomes, CYP3A4
# Sequence of CYP3A4 (P08684 whole entry): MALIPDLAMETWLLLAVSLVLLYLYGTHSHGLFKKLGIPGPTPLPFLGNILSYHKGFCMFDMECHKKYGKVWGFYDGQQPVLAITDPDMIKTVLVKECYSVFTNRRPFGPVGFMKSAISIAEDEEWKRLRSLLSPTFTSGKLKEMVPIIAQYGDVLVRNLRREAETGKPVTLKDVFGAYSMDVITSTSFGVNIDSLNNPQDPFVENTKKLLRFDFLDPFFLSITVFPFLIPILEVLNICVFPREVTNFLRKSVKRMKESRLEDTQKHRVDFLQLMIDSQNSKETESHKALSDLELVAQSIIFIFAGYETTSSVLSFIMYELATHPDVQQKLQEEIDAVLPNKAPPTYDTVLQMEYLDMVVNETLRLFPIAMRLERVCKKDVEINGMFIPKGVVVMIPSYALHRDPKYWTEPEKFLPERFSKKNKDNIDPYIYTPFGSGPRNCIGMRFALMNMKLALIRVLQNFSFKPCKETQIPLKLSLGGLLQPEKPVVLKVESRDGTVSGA
# CYP2C9 = CYP2C9 (Homo sapiens (Human), UniProt P11712); assay: Cytochrome P450 inhibition in human liver microsomes, CYP2C9
# Sequence of CYP2C9 (P11712 whole entry): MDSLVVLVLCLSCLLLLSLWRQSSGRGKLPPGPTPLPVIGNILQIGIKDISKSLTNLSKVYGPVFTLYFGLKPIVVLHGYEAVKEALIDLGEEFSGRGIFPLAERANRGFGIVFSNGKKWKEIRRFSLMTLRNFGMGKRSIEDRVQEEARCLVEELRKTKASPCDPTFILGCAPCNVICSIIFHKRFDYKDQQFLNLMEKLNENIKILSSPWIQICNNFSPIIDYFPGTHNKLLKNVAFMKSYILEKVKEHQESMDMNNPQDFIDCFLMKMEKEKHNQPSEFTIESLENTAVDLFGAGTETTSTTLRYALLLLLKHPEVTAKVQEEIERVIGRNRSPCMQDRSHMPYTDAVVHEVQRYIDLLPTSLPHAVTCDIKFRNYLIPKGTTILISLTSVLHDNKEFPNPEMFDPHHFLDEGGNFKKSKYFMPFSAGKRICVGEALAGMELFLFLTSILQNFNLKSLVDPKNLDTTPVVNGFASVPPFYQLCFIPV
# CYP2C19 [5] = target: T1, CYP2C19; assay: Cytochrome P450 inhibition in human liver microsomes, CYP2C19
# CYP2D6 = CYP2D6 (Homo sapiens (Human), UniProt P10635); assay: Cytochrome P450 inhibition in human liver microsomes, CYP2D6
# Sequence of CYP2D6 (P10635 whole entry): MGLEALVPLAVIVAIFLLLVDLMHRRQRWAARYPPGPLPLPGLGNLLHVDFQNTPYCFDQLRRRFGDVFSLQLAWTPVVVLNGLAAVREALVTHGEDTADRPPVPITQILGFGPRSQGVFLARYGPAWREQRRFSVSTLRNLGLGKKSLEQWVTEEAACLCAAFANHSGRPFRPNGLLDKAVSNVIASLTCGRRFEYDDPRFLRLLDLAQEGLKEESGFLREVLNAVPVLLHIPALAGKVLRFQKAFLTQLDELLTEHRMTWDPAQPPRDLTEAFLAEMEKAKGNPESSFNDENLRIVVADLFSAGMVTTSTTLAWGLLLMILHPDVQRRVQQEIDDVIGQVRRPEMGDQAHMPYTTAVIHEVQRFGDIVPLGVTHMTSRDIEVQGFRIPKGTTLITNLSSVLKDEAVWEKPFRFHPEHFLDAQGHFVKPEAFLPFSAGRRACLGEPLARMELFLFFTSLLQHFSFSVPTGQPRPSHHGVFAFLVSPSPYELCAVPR
# [6] = read-out: 3A4 IC50 (Midazolam), substrate midazolam, Protocol 1
# [7] = read-out: 3A4 IC50 (Testosterone), substrate testosterone, Protocol 1
# [8] = Protocol No. 1, human liver microsomes
# [9] = Protocol No. 1, rat liver microsomes
# [10] = read-out: 2C19 IC50, Protocol 1
# [11] = read-out: 2C19 IC50, Protocol 2
# [12] = read-out: 3A4 IC50 (Midazolam), substrate midazolam, Protocol 2
# [13] = Protocol No. 2, human liver microsomes
# [14] = Protocol No. 2, rat liver microsomes
SMILES,"HLM ([1]; human, microsomes, pH 7.4) [mL/min/kg]","RLM ([2]; rat, microsomes, pH 7.4) [mL/min/kg]","% Remaining @ 2 h (Human plasma stability; human, 2 h, 1 μM, pH 7.4) [%]","half-life at 1 μM (Human plasma stability; human, pH 7.4) [h]","IC50 (CYP1A2; read-out: 1A2 IC50, Protocol 2) [µM]",IC50 (CYP2C19 [3]) [µM],IC50 [4] [µM],Ki [4] [µM],IC50 (CYP3A4; [6]) [µM],IC50 (CYP3A4; [7]) [µM],"IC50 (CYP1A2; read-out: 1A2 IC50, Protocol 1) [µM]",further results
"Cc1cccc2[nH]cc(C(=O)OCC34CCN(CC3)CC4)c12 [Compound 21, quinuclidin-4-ylmethyl 4-methyl-1H-indole-3-carboxylate]",<13.608,379.107,83,> 2,> 10,> 10,0.0588,0.0509,,,,
"O=C(OCC12CCN(CC1)CC2)c1c[nH]c2cc(Cl)ccc12 [Compound 26, quinuclidin-4-ylmethyl 6-chloro-1H-indole-3-carboxylate]",<13.608,75.0501,65,> 2,> 10,> 10,0.451,0.398,,,,
"Cc1ccc2c(C(=O)OCC34CCN(CC3)CC4)c[nH]c2c1.Cl [Compound 45, Quinuclidin-4-ylmethyl 6-methyl-1H-indole-3-carboxylate hydrochloride]",,,,,,,0.0736,0.0631,> 10,> 10,> 10,"HLM [1, 8]: 2.976 mL/min/kg; IC50 (CYP2C9; read-out: 2C9 IC50, Protocol 1): > 10 µM; RLM [2, 9]: 170.981 mL/min/kg; % Remaining @ 2 h (Human plasma stability; Protocol No. 2, 5 μM, 37° C.): 47.32%; IC50 (CYP2C19 [5]; [10]): > 10 µM; IC50 (CYP2D6; read-out: 2D6 IC50, Protocol 1): > 10 µM"
"Cl.O=C(OCC12CCN(CC1)CC2)c1c[nH]c2cc(F)c(F)cc12 [Compound 51, Quinuclidin-4-ylmethyl 5,6-difluoro-1H-indole-3-carboxylate hydrochloride]",,,,,,,0.662,0.568,> 10,> 10,> 10,"HLM [1, 8]: 1.004 mL/min/kg; IC50 (CYP2C9; read-out: 2C9 IC50, Protocol 1): > 10 µM; RLM [2, 9]: 716.882 mL/min/kg; % Remaining @ 2 h (Human plasma stability; Protocol No. 2, 5 μM, 37° C.): 79.3649%; IC50 (CYP2C19 [5]; [10]): > 10 µM; IC50 (CYP2D6; read-out: 2D6 IC50, Protocol 1): > 10 µM"
"Cl.O=C(OCC12CCN(CC1)CC2)c1c[nH]c2cc(O)c(F)cc12 [Compound 59, Quinuclidin-4-ylmethyl 5-fluoro-6-hydroxy-1H-indole-3-carboxylate hydrochloride]",,,,,,,0.0701,0.0602,> 10,> 10,> 10,"HLM [1, 8]: 0 mL/min/kg; IC50 (CYP2C9; read-out: 2C9 IC50, Protocol 1): > 10 µM; RLM [2, 9]: 24.713 mL/min/kg; % Remaining @ 2 h (Human plasma stability; Protocol No. 2, 5 μM, 37° C.): 53.78%; IC50 (CYP2C19 [5]; [10]): 20.9 µM; IC50 (CYP2D6; read-out: 2D6 IC50, Protocol 1): > 10 µM"
"O=C(OCC12CCN(CC1)CC2)c1c[nH]c2cccc(Cl)c12 [Compound 35, quinuclidin-4-ylmethyl 4-chloro-1H-indole-3-carboxylate]",<13.608,183.6,56,> 2,> 10,> 10,0.0266,0.023,,,,
"O=C(OCC12CCN(CC1)CC2)c1c[nH]c2cc(O)cc(Br)c12 [Compound 53, quinuclidin-4-ylmethyl 4-bromo-6-hydroxy-1H-indole-3-carboxylate]",,,,,,,0.0536,0.046,> 10,> 10,> 10,"HLM [1, 8]: 8.304 mL/min/kg; IC50 (CYP2C9; read-out: 2C9 IC50, Protocol 1): > 10 µM; RLM [2, 9]: 29.9085 mL/min/kg; % Remaining @ 2 h (Human plasma stability; Protocol No. 2, 5 μM, 37° C.): 95.5%; IC50 (CYP2C19 [5]; [10]): > 10 µM; IC50 (CYP2D6; read-out: 2D6 IC50, Protocol 1): > 10 µM"
"O=C(OCC12CCN(CC1)CC2)c1c[nH]c2ccc(Cl)cc12 [Compound 27, quinuclidin-4-ylmethyl 5-chloro-1H-indole-3-carboxylate]",<13.608,106.429,,,> 10,> 10,0.282,0.247,,,,
"COc1cc2c(C(=O)OCC34CCN(CC3)CC4)c[nH]c2cc1F [Compound 57, quinuclidin-4-ylmethyl 6-fluoro-5-methoxy-1H-indole-3-carboxylate]",,,,,,,0.257,0.221,> 10,> 10,> 10,"HLM [1, 8]: 0 mL/min/kg; IC50 (CYP2C9; read-out: 2C9 IC50, Protocol 1): > 10 µM; RLM [2, 9]: 153.227 mL/min/kg; % Remaining @ 2 h (Human plasma stability; Protocol No. 2, 5 μM, 37° C.): 76.33%; IC50 (CYP2C19 [5]; [10]): > 10 µM; IC50 (CYP2D6; read-out: 2D6 IC50, Protocol 1): > 10 µM"
"O=C(OCC12CCN(CC1)CC2)c1c[nH]c2cccc(Br)c12 [Compound 24, quinuclidin-4-ylmethyl 4-bromo-1H-indole-3-carboxylate]",<13.608,175.569,89,> 2,> 10,> 10,0.0581,0.0504,,,,
"COc1ccc2[nH]cc(C(=O)OCC34CCN(CC3)CC4)c2c1OC [Compound 40, quinuclidin-4-ylmethyl 4,5-dimethoxy-1H-indole-3-carboxylate]",,,,,,,0.0696,0.06,> 10,> 10,> 10,"HLM ([1]; human, microsomes): 7.67 mL/min/kg; RLM ([2]; rat, microsomes): 49.42 mL/min/kg; T1/2 (Human plasma stability; human): ∞; % Remaining @ 2 h (Human plasma stability; human, 2 h, 5 μM): 106.8%; IC50 (CYP2C19 [3]; 45 min): > 10 µM"
"O=C(OCC12CCN(CC1)CC2)c1c[nH]c2cc(Br)ccc12 [Compound 22, quinuclidin-4-ylmethyl 6-bromo-1H-indole-3-carboxylate]",<13.608,49.5027,58,> 2,> 10,> 10,0.607,0.532,,,,
"O=C(OCC12CCN(CC1)CC2)c1c[nH]c2cc(O)ccc12 [Compound 14, quinuclidin-4-ylmethyl 6-hydroxy-1H-indole-3-carboxylate]",<13.608,25.92,26,1.09,> 10,,0.0619,0.0537,,,,"IC50 (CYP2C9; read-out: 2C9 IC50, Protocol 2): > 10 µM; IC50 (CYP2C19 [5]; [11]): > 10 µM; IC50 (CYP2D6; read-out: 2D6 IC50, Protocol 2): > 10 µM"
"Cl.O=C(OCC12CCN(CC1)CC2)c1c[nH]c2cc(OC(F)F)ccc12 [Compound 31, Quinuclidin-4-ylmethyl 6-(difluoromethoxy)-1H-indole-3-carboxylate hydrochloride]",,,,,> 10,,0.788,0.689,,,,"IC50 (CYP3A4; [12]): > 10 µM; HLM [1, 13]: <13.608 mL/min/kg; IC50 (CYP2C9; read-out: 2C9 IC50, Protocol 2): > 10 µM; RLM [2, 14]: 25.92 mL/min/kg; IC50 (CYP2C19 [5]; [11]): > 10 µM; IC50 (CYP2D6; read-out: 2D6 IC50, Protocol 2): > 10 µM"
"COc1ccc2[nH]cc(C(=O)OCC34CCN(CC3)CC4)c2c1Cl [Compound 39, quinuclidin-4-ylmethyl 4-chloro-5-methoxy-1H-indole-3-carboxylate]",,,,,,,0.0239,0.0206,> 10,> 10,> 10,"HLM ([1]; human, microsomes): 9.18 mL/min/kg; RLM ([2]; rat, microsomes): 262.35 mL/min/kg; % Remaining @ 2 h (Human plasma stability; human, 2 h, 5 μM): 14.05%; IC50 (CYP2C19 [3]; 45 min): > 10 µM"
"Cl.O=C(OCC12CCN(CC1)CC2)c1c[nH]c2cc(OC(F)(F)F)ccc12 [Compound 29, Quinuclidin-4-ylmethyl 6-(trifluoromethoxy)-1H-indole-3-carboxylate hydrochloride]",,,,,> 10,,3.71,3.24,,,,"IC50 (CYP3A4; [12]): > 10 µM; HLM [1, 13]: <13.608 mL/min/kg; IC50 (CYP2C9; read-out: 2C9 IC50, Protocol 2): > 10 µM; RLM [2, 14]: 25.92 mL/min/kg; IC50 (CYP2C19 [5]; [11]): > 10 µM; IC50 (CYP2D6; read-out: 2D6 IC50, Protocol 2): > 10 µM"
"O=C(OCC12CCN(CC1)CC2)c1c[nH]c2ccc(Br)cc12 [Compound 23, quinuclidin-4-ylmethyl 5-bromo-1H-indole-3-carboxylate]",<13.608,81.6815,21,0.882,> 10,> 10,0.424,0.374,,,,
"O=C(OCC12CCN(CC1)CC2)c1c[nH]c2cccc(F)c12 [Compound 13, quinuclidin-4-ylmethyl 4-fluoro-1H-indole-3-carboxylate]",<13.608,94.3866,,0.25,> 10,> 10,0.0141,0.0122,,,,
